Test results published in US10850135B2, “Antiseptic-tolerant lactic acid bacteria” (AB-BIOTICS, S.A., priority 2016, dated 2020).

Columns and labels:
Test in all cases: Tolerance to antiseptics, disc diffusion assay
[1] = tested on: Porphyromonas gingivalis DSM20709; format: cell-based
Description: (§1) LAB strains with presumed probiotic properties namely L. brevis, P. acidilactici, P. pentosaceus, S. oralis and S. salivarius were seeded in agar plates with the appropriate nutrient media and incubated in order to obtain isolated colonies. Porphyromonas gingivalis DSM20709 was used as an example of pathogens associated with periodontal pathologies. For each strain the nutritive media and atmospheric conditions used were the most suitable for their proper growth as summarized in TABLE 1.
(§2) For each microorganism, isolated colonies were used for preparing a suspension in Phosphate Buffered Saline 0.1M (PBS) with an optical density equivalent to a Mc Farland standard No. 3. The suspension was used for obtaining a confluent layer of microorganism over the corresponding nutrient medium (TABLE 1) by uniformly seeding the microorganism using a sterile swab.
(§3) Immediately after the inoculation of the strains in the plates, 6 mm of cellulose discs were placed. The discs were impregnated with different conventional antiseptics according to TABLE 2:
(§4) The volume used was the maximum allowed by the disc without spreading on the medium. The solvent was confirmed to not be inhibitory against the bacteria at the amount used. Microorganism were allowed to grow according to the conditions of TABLE 1, and halos of inhibition (in millimeters) measured after 24 h or 48 h according to the corresponding optimal growth conditions for the microorganisms. Results were obtained in triplicate.

[2] = tested on: Streptococcus sp. strains (S. oralis, S. salivarius K12); format: cell-based
Description: as §1, §2, §3, §4

[3] = tested on: L. brevis CD2; format: cell-based, Lactobacillus brevis
Description: as §1, §2, §3, §4

[4] = tested on: Pediococcus strains (P. acidilactici CECT8633, P. acidilactici AB134, P. pentosaceus CECT8330); format: cell-based, Pediococcus sp.; conditions: for resistance compared with the other strains tested (disc diffusion): vs L. brevis, Streptococcus sp. and P. gingivalis
Description: as §1, §2, §3, §4

[5] = tested on: Pediococcus pentosaceous CECT8330; format: cell-based, Pediococcus pentosaceus; conditions: 6 mm discs impregnated with chlorhexidine; concentration not given
Description: as §1, §2, §3
as §4, with “The solvent was confirmed to not be inhibitory against the bacteria at the amount used.” left out, “Results were obtained in triplicate.” left out

[6] = tested on: P. acidilactici AB134; format: cell-based, Pediococcus acidilactici; conditions: 6 mm discs impregnated with chlorhexidine; concentration not given
Description: as §1, §2, §3, §4

[7] = tested on: P. acidilactici CECT8633; format: cell-based, Pediococcus acidilactici
Description: as §1, §2, §3, §4

[8] = highest concentration tested 1.2 mg/mL, 5 uL per disc
[9] = 6 mm discs impregnated with chlorhexidine, concentration not given
[10] = any of the concentration tested (0.12%, 0.06%, 0.03%)
[11] = highest concentration tested 0.12%, v/v
[12] = triclosan at different concentrations (0.2%, 0.1%, 0.05%), 5 uL per disc

Cc1ccc(C(C)C)c(O)c1 [thymol, 2-isopropyl-5-methylphenol]
growth inhibition (halo, disc diffusion) [1, 8]: inhibited the growth | growth inhibition (halo, disc diffusion) [2, 8]: inhibited the growth

NC(=NCCCCCCN=C(N)/N=C(\N)Nc1ccc(Cl)cc1)/N=C(\N)Nc1ccc(Cl)cc1 [chlorhexidine, (1E)-2-[6-[[amino-[(E)-[amino-(4-chloroanilino)methylidene]-amino]methylidene]amino]hexyl]-1-[amino-(4-chloroanilino)methylidene]guanidine]
inhibition halo [1, 9]: 9 mm | inhibition (halo, disc diffusion) [1, 10]: inhibited at any of the concentration tested | inhibition (halo, disc diffusion) [1, 11]: all the strains were inhibited | inhibition (halo, disc diffusion) [2, 10]: inhibited at any of the concentration tested | inhibition (halo, disc diffusion) [2, 11]: all the strains were inhibited | inhibition (halo, disc diffusion) ([3]; concentrations of 0.12% and 0.06%): inhibited | inhibition (halo, disc diffusion) [3, 11]: all the strains were inhibited | inhibition (halo, disc diffusion) [4, 11]: all the strains were inhibited | resistance compared with the other strains tested (disc diffusion) [4]: greatest resistance | inhibition halo [5]: 4 mm | inhibition halo [6]: 2 mm | inhibition halo [7, 9]: 3 mm

N=C(NCCCCCCNC(=N)NC(=N)Nc1ccc(Cl)cc1)NC(=N)Nc1ccc(Cl)cc1.O=C(O)[C@H](O)[C@@H](O)[C@H](O)[C@H](O)CO.O=C(O)[C@H](O)[C@@H](O)[C@H](O)[C@H](O)CO [chlorhexidine gluconate]
inhibition (halo, disc diffusion) [1, 11]: all the strains were inhibited | inhibition (halo, disc diffusion) [2, 11]: all the strains were inhibited | inhibition (halo, disc diffusion) [3, 11]: all the strains were inhibited | inhibition (halo, disc diffusion) [4, 11]: all the strains were inhibited | resistance compared with the other strains tested (disc diffusion) [4]: highest resistance | inhibition halo compared with S. salivarius K12 and P. gingivalis ([7]; chlorhexidine gluconate 0.12%, 20 μl per 6-mm disc (FIG. 7)): lower inhibition halo

Oc1cc(Cl)ccc1Oc1ccc(Cl)cc1Cl [triclosan, 5-Chloro-2-(2,4-dichlorophenoxy)phenol]
inhibition (halo, disc diffusion) [1, 12]: inhibited | inhibition (halo, disc diffusion) [2, 12]: inhibited | inhibition (halo, disc diffusion) [3, 12]: neither Lactobacillus brevis nor the strains belonging to Pediococcus genus were inhibited | inhibition (halo, disc diffusion) [4, 12]: neither Lactobacillus brevis nor the strains belonging to Pediococcus genus were inhibited
